Data from patent publication US7618958B2, “Stereospecific anxiolytic and anticonvulsant agents with reduced muscle-relaxant, sedative-hypnotic and ataxic effects” (WISYS Technology Foundation, Inc., priority 2004, dated 2009).

Tests used:
Male Sprague-Dawley rats [1] = test: Open-field locomotor activity in rats; details: ratio of lowest effective anxiolytic dose (situational anxiety) and lowest effective dose producing side effects in locomotor activity, PO
Experimental: Open-Field Locomotor Activity in Rats
Male Sprague-Dawley rats, weighing 250-290 grams at the beginning of the experiment were purchased from Charles River Laboratories (Wilmington, Mass.). The animals were housed in groups of four in a colony room maintained at constant temperature (21±2° C.) and humidity (50±10%). The room was illuminated 12 hours per day (lights on at 0600 h). The rats had ad libitum access to food and water. The testing apparatus consisted of Plexiglas chambers (42×42×30 cm) equipped with Digiscan activity monitors (Omnitech Electronics, Columbus, Ohio) that detect interruptions of 16 photobeams spaced 2.5 cm apart and 2.5 cm above the floor. Horizontal activity was monitored for 60 minutes.
(§1) Drug Administration: All drugs were administered PO 20-60 minutes before behavioral testing.
(§2) Data Analysis: Results were expressed as the mean±1 SEM. All data were subjected to analysis of variance (ANOVA) followed by individual mean comparisons using Fisher's Least Significant Difference Test (Kirk, 1968) where appropriate. The significance level was set at p<0.05.
Rats were placed in an open field and the total distance covered by the rat was measured. The test duration was 60 minutes. Compounds producing sedative effects decrease the distance covered.

Male Sprague-Dawley rats [2] = test: Rotorod performance in rats; details: ratio of lowest effective anxiolytic dose (situational anxiety) and lowest effective dose producing side effects in rotorod, PO
Experimental: Rotorod Performance in Rats
Male Sprague-Dawley rats, weighing 180-200 grams at the beginning of the experiment were purchased from Charles River Laboratories (Wilmington, Mass.). The animals were housed in groups of four in a colony room maintained at constant temperature (21±2° C.) and humidity (50±10%). The room was illuminated 12 hours per day (lights on at 0600 h). The rats had ad libitum access to food and water. The degree of muscle coordination or balance (i.e., ataxia) was determined using a standard accelerating rotorod treadmill (Ugo Basile, Comerio-Varese, Italy or Columbus Instruments, Columbus, Ohio) that was 6 cm in diameter, 24 cm above the base, and run from an initial speed of 2 rpm to a maximum speed of 20 rpm. The time each animal remained on the rotating rod was automatically recorded, up to a maximum of 5 minutes.
as §1, §2
The time on the rod for each rat was recorded. Compounds producing ataxia (motor incoordination) decrease the time spent on the rod compared with vehicle-treated animals.

Male CF1 mice = test: Protection from pentylenetetrazole-induced seizures; format: in vivo, mouse; details: PO 60 min before pentylenetetrazole 125 mg/kg s.c.
Experimental: Protection from Pentylenetetrazole-Induced Seizures
Male CF1 mice weighing 20-22 g at the time of the experiment were purchased from Charles River Laboratories (Wilmington, Mass.). Pentylenetetrazole (Sigma Chemical Co.) was administered at 125 mg/kg s.c. The number of animals surviving was recorded at 30 minutes and 60 minutes after administration of pentylenetetrazole.
Drug Administration: All drugs were administered PO 60 minutes before administration of pentyenetetrazole.
Data Analysis: The data are presented as the percent of animals protected from death. The data were analyzed by Chi Square statistics. The significance level was set at p<0.05.
Mice treated with certain compounds of the present invention were subjected to pentylenetetrazole (PTZ) at 125 mg/kg to induce seizures. The percent of animals protected from death within one hour of PTZ was measured.

Male Sprague-Dawley rats [3] = test: Discriminative stimulus effects of chlordiazepoxide in rats (drug discrimination); details: ratio of lowest effective anxiolytic dose (situational anxiety) and lowest effective dose producing chlordiazepoxide-like effects in drug discrimination
male Wistar rats = test: Elevated plus-maze in rats; format: in vivo, rat; details: rats, mean, N 6; for Open Entries: SOLVENT mean 2.57; for Closed Entries: SOLVENT mean 7.14; for Total Distance Travelled (m): SOLVENT mean 9.30; for Total Entries: SOLVENT mean 9.71; for % Open Time: SOLVENT mean 20.43; for % Open Entries: SOLVENT mean 25.57; for Time in open arms: SOLVENT mean 50.29; for Time in closed arms: SOLVENT mean 196.29
Experimental: Except where noted, the methods used were those of Miroslav M., et al., (2004) Pharmacology, Biochemistry and Behavior 79: 279-290. Experiments were carried out on male Wistar rats (Military Farm, Belgrade, Serbia and Montenegro), weighing 200-240 g. All procedures in the study conformed to EEC Directive 86/609 and were approved by the Ethical Committee on Animal Experimentation of the Medical Faculty in Belgrade. The rats were housed in transparent plastic cages, six animals per cage, and had free access to pelleted food and tap water before and after drug administration. The temperature of the animal room was 22±1° C., the relative humidity 40-70%, the illumination 120 1× and the 12/12-h light/dark period (light on at 06:00 h). All handling and testing took place during the light portion of the cycle. Throughout the study the animals were used only once.
Midazolam and flumazenil were generously donated from F. Hoffman-La Roche (Basel, Switzerland). Zolpidem was purchased from Toronto Research Chemicals (North York, Canada) and DMCM from Research Biochemicals (Natick, Mass., USA). All drugs were dissolved/suspended with the aid of sonication in a solvent containing 85% distilled water, 14% propylene glycol and 1% Tween 80™, and were administered intraperitoneally, in a volume of 1 ml/kg, 20 min before testing. Doses are expressed as the base forms of the drugs. In the cases of combined treatment, agonists were administered at separate sites, immediately after the antagonist. Each animal received a total volume of 2 ml/kg of compounds tested or appropriate vehicles, at two different injection sites.
The test apparatus was constructed of sheet metal, with a black rubber floor. It consisted of a maze elevated to a height of 50 cm with two open (50×10 cm) and two enclosed arms (50×10×40 cm), connected by junction area (central platform) measured 10×10 cm. Although the floor was rubberized, a ledge of sheet metal (0.3 cm high) surrounding the open arms was added, to avoid rats falling off. The illumination in the experimental room consisted of one red neon tube fixed on the ceiling, giving light intensity of 10 1× on the surface of the arms. The experiments were carried out during the diurnal phase (between 08:00 and 12:00 h). At the beginning of the experiment, rats were placed in the centre of the maze, facing one of the enclosed arms and observed for 5 min. The observer sat in the same room 1 m from the maze. After each trial, the maze was cleaned with dry and wet towels. Throughout the study, the number of rats per treatment group was 8-14. Each experiment was run over 4 consecutive days, with three control rats per day; as there was no difference in plus-maze activity among control subgroups, they were pooled in a single control group (n=12).
All numerical data presented in the figures were given as the mean±S.E.M. Each dose-response curve (agonist or antagonist alone or agonist+antagonist) was assessed by a one-way ANOVA. If the ANOVA was significant, each treatment condition was compared with the appropriate solvent control by a Dunnett's test (a=0.05). In case of significant effect in the number of enclosed arm entries, an analysis of covariance (ANCOVA) was performed in the anxiety-related parameters using the number of enclosed arm entries as covariate. Interactions between the agonists and antagonists were analyzed separately with a two-way ANOVA [factors: agonist dose versus cotreatment (an antagonist or saline)]; pairwise comparisons for the assessment of the antagonist influence on the agonist effects were conducted by Tukey's test, one of the methods recommended even in the absence of an overall significant F-test (Wilcox R R. New designs in analysis of variance. Annu Rev Psychol 1987; 38: 29-60). Statistical analyses were performed with commercial statistical software for PC, Stat for Windows R. 5.0.

[4] = DZP 1.25 mg/kg ip, t test p ≦ 0.05

Q: With `CCOC(=O)c1ncn2c1CN=C(c1ccccc1)c1cc(Cl)ccc1-2` as the molecule, how does the melting point read?
A: Its melting point is 174 to 175 °C.

Q: Which melting point does the source give for `CNC1=Nc2ccc(Br)cc2C(c2ccccc2)=NC1` here?
A: Its melting point is 234 to 235 °C.

Q: Which melting point does the source give for `CNC1=Nc2ccc(C#C[Si](C)(C)C)cc2C(c2ccccc2)=NC1` here?
A: Its melting point is 210 to 211 °C.

Q: With `CN1C(=O)CN=C(c2ccccn2)c2cc(C#C[Si](C)(C)C)ccc21` as the molecule, how does the melting point read?
A: The melting point was 194 to 195 °C.

Q: Which melting point does the source give for `C#Cc1ccc2c(c1)C(c1ccccn1)=NCC(=O)N2C` here?
A: The melting point was 190 to 191 °C.

Q: With `CCOC(=O)c1ncn2c1CN=C(c1ccccn1)c1cc(C#C[Si](C)(C)C)ccc1-2` as the molecule, how does the melting point read?
A: The melting point was 205 to 206 °C.

Q: With `CCOC(=O)c1ncn2c1CN=C(c1cccs1)c1cc(C#C[Si](C)(C)C)ccc1-2` as the molecule, how does the melting point read?
A: The melting point was 124 to 127 °C.

Q: With `CCOC(=O)c1ncn2c1C(C)N=C(c1ccccc1)c1cc(Br)ccc1-2` (stereo not shown) as the molecule, how does the melting point read?
A: Its melting point is 164 to 165 °C.

Q: Which melting point does the source give for `CCOC(=O)c1ncn2c1C(C)N=C(c1ccccc1)c1cc(C#C[Si](C)(C)C)ccc1-2` (stereo not shown) here?
A: Its melting point is 160 to 162 °C.

Q: For `CCOC(=O)c1ncn2c1C(C)N=C(c1ccccc1F)c1cc(C#C[Si](C)(C)C)ccc1-2` (stereo not shown), which melting point is on record?
A: The melting point was 186 to 187 °C.

Q: Which melting point does the source give for `CCOC(=O)c1ncn2c1C(C)N=C(c1ccccn1)c1cc(C#C[Si](C)(C)C)ccc1-2` (stereo not shown) here?
A: The melting point was 197 to 198 °C.

Q: With `CC(C)(C)OC(=O)c1ncn2c1CN=C(c1ccccc1)c1cc(Br)ccc1-2` as the molecule, how does the melting point read?
A: Its melting point is 222 to 223 °C.

Q: Which melting point does the source give for `Cc1nnc2n1-c1ccc(C#CC(C)(C)C)cc1C(c1ccccc1Cl)=NC2` here?
A: Its melting point is > 268 °C (dec.).

Q: For `Cc1nnc2n1-c1ccc(C#CC(C)(C)C)cc1C(c1ccccc1)=NC2`, which melting point is on record?
A: Its melting point is 184 to 186 °C.

Q: With `O=C(OCC(F)(F)F)c1ncn2c1CN=C(c1ccccc1)c1cc(Br)ccc1-2` as the molecule, how does the melting point read?
A: The melting point was 202 to 204 °C.

Q: Which melting point does the source give for `O=C(OCC(Cl)(Cl)Cl)c1ncn2c1CN=C(c1ccccc1)c1cc(Br)ccc1-2` here?
A: Its melting point is 113 to 116 °C.

Q: Which melting point does the source give for `C[Si](C)(C)C#Cc1ccc2c(c1)C(c1ccccc1)=NCc1c(C(=O)OCC(F)(F)F)ncn1-2` here?
A: The melting point was 107 to 110 °C.

Q: Which results are given for `CCOC(=O)c1ncn2c1CN=C(c1ccccc1)c1cc(Br)ccc1-2` [DM-i-070, Ethyl 8-bromo-6-phenyl-4H-benzo[f]imidazo[1,5-a][1,4]diazepine-3-carboxylate]?
A: Antianxiety/sedation (Male Sprague-Dawley rats [1]): >100; Antianxiety/ataxia (Male Sprague-Dawley rats [2]): >100; PTZ Seizures, effective dose (Male CF1 mice): <100 mg/kg; Antianxiety/abuse liability (Male Sprague-Dawley rats [3]): 10

Q: Which “PTZ Seizures, effective dose” value (Male CF1 mice) does the source give for `CN1C(=O)CN=C(c2ccccc2)c2cc(Cl)ccc21` [Diazepam, reference compound] here?
A: The value was <10 mg/kg.

Q: And the “Open Entries” value (male Wistar rats; [4])?
A: Its value is 4.83.

Q: What about the “Closed Entries” value (male Wistar rats; DZP 1.25 mg/kg ip, t test p = 0.292) of the same molecule?
A: The value was 5.50.

Q: And the “Total Distance Travelled (m)” value (male Wistar rats; DZP 1.25 mg/kg ip, t test p = 0.670)?
A: Its value is 8.59 m.

Q: And the “Total Entries” value (male Wistar rats; DZP 1.25 mg/kg ip, t test p = 0.745)?
A: Its value is 10.33.

Q: What about the “% Open Time” value (male Wistar rats; [4]) of the same molecule?
A: The value was 46.33%.

Q: What about the “% Open Entries” value (male Wistar rats; [4]) of the same molecule?
A: Its value is 47.00%.

Q: What about the “Time in open arms” value (male Wistar rats; DZP 1.25 mg/kg ip, t test p = 0.052) of the same molecule?
A: Its value is 104.17.

Q: And the “Time in closed arms” value (male Wistar rats; DZP 1.25 mg/kg ip, t test p = 0.064)?
A: The value was 129.50.

Q: What about the Antianxiety/abuse liability (Male Sprague-Dawley rats [3]) of the same molecule?
A: The Antianxiety/abuse liability was 5.

Q: For `C#Cc1ccc2c(c1)C(c1ccccc1F)=NC(C)c1c(C(=O)OCC)ncn1-2` (stereo not shown) [SH-053-2′F-S—CH3, 8-Ethynyl-6-(2-fluorophenyl)-4-methyl-4H-2,5,10b-triaza-benzo[e]azulene-3-carboxylic acid ethyl ester], which “Open Entries” value (male Wistar rats; SH-053-2′F-S—CH3 10 mg/kg ip, t test p = 0.503) is on record?
A: Its value is 3.33.

Q: What about the “Closed Entries” value (male Wistar rats; SH-053-2′F-S—CH3 10 mg/kg ip, t test p ≦ 0.05) of the same molecule?
A: The value was 4.67.

Q: And the “Total Distance Travelled (m)” value (male Wistar rats; SH-053-2′F-S—CH3 10 mg/kg ip, t test p = 0.080)?
A: The value was 6.91 m.

Q: And the “Total Entries” value (male Wistar rats; SH-053-2′F-S—CH3 10 mg/kg ip, t test p = 0.239)?
A: The value was 8.00.

Q: And the “% Open Time” value (male Wistar rats; SH-053-2′F-S—CH3 10 mg/kg ip, t test p = 0.536)?
A: The value was 25.00%.

Q: And the “% Open Entries” value (male Wistar rats; SH-053-2′F-S—CH3 10 mg/kg ip, t test p = 0.147)?
A: Its value is 37.17%.

Q: What about the “Time in open arms” value (male Wistar rats; SH-053-2′F-S—CH3 10 mg/kg ip, printed t test line doubtful) of the same molecule?
A: The value was 60.50.

Q: And the “Time in closed arms” value (male Wistar rats; SH-053-2′F-S—CH3 10 mg/kg ip, t test p = 0.586)?
A: The value was 183.33.

Q: Which results are given for `Cc1nnc2n1-c1ccc(Cl)cc1C(c1ccccc1Cl)=NC2` [Triazolam, reference compound]?
A: Antianxiety/sedation (Male Sprague-Dawley rats [1]): 300; Antianxiety/ataxia (Male Sprague-Dawley rats [2]): 100; PTZ Seizures, effective dose (Male CF1 mice): <1.0 mg/kg; Antianxiety/abuse liability (Male Sprague-Dawley rats [3]): 30
